The record followed here is patent US7145015B2, “Benzocycloheptenes, process for their production, pharmaceutical preparations that contain that latter as well as their use for the production of pharmaceutical agents” (Schering AG, priority 1998, dated 2006).

Usually melting point stands for the temperature of the solid-liquid transition.

For `O=S(=O)(CCCCCOc1ccc(C2=C(c3ccccc3)CCCc3cc(O)ccc32)cc1)c1ccccc1` [Example 53, 6-phenyl-5-[4-(5-phenylsulfonyl-pentyloxy)-phenyl]-8,9-dihydro-7H-benzocyclohepten-2-ol], the melting point is 162 °C.
With `CC(C)(C)c1ccc(SCCCCCOc2ccc(C3=C(c4ccccc4)CCCc4cc(O)ccc43)cc2)cc1` [Example 54, 5-{4-[5-(4-tert-Butyl-phenylthio)-pentyloxy]-phenyl}-6-phenyl-8,9-dihydro-7H-benzocyclohepten-2-ol] the figure was 139 °C.
